Source: patent US11491165B2 (Kinoxis Therapeutics Pty Ltd, priority 2016, dated 2022)

How the values were obtained:
[1] = target: T1, vasopressin 1a receptor (V1aR) (Homo sapiens, UniProt P37288); assay: IP1 accumulation assay, V1aR-expressing HEK-293 cells (agonist and antagonist assessment); format: cell-based; details: for EC50: agonist assessment, IP1, 1 h; for IC50: antagonist assessment vs AVP 25 nM (~EC70), IP1
T1 construct: expressed in transfected cells
Experimental: Cells were subsequently maintained in 10% DMEM containing hygromycin (80 μg/ml), penicillin (100 U/ml), streptomycin (0.1 mg/ml) and blasticidine S hydrochloride (15 μg/ml).
Cells were incubated in tetracycline (2 μg/mL) for 48 h to induce receptor expression. Intracellular IP1 levels induced by activation of the Gq protein coupled to the OTR and V1aR was indexed using the HTRF IP-One kit (CisBio International, Bedford, Mass., USA), according to manufacturer's protocol. For agonist assessment, cells were incubated with logarithmically-spaced concentrations of compounds (1 nM-100 μM) for 1 h prior to the addition of Ab-Cryptate and IP1-d2 for 1 h. The contents of each well were transferred to a white-walled proxy plate (Perkin Elmer) and fluorescence read using a Pherastar Microplate reader (BMG Labtech, Cary, N.C., USA). […] IP1 levels in the presence of compounds and OT or AVP were expressed as a percentage of levels seen with OT or AVP in the presence of vehicle control. Concentration response curves for OT and AVP were determined after 5 min incubation in drug or vehicle, and the data fitted using GraphPad PRISM to a 4-parameter logistic equation of the form y=Min+(Max−Min)/(1+10^((logEC50−X)*n)) where X is drug concentration and n is the H-ill slope. Data represent the mean±s.d. of at least 3 independent experiments, each in duplicate.

[2] = target: T2, oxytocin receptor (OXTR), hOTR (Homo sapiens, UniProt P30559); assay: IP1 accumulation assay, OTR-expressing HEK-293 cells (agonist and antagonist assessment); format: cell-based; details: for EC50: IP1, 1 h; for IC50: antagonist assessment vs OT 30 nM (~EC70); for OV function: ratio of OXTR functional potency to V1aR functional potency, 'OT only' = function at OXTR only; for Emax: HEK293, read-out: OXTR Emax (% OXT)
T2 construct: expressed in transfected cells
T2 sequence (P30559 1-389): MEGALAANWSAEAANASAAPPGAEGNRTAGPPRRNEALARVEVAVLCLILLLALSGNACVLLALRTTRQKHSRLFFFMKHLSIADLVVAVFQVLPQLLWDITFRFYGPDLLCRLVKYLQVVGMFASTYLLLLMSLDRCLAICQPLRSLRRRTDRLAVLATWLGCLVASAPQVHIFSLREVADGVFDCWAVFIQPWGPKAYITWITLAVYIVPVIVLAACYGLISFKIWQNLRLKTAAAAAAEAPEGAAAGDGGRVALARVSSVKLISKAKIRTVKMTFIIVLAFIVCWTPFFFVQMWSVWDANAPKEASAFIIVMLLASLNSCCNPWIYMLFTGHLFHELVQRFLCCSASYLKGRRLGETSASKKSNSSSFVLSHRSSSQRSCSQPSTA
Experimental: (§1) Human embryonic kidney cells (HEK-293) transfected to stably express untagged hOTR and V1aR using the Flp-In™ T-REx™ system (Life Technologies, Carlsbad, Calif. USA) were established as reported in Jorgensen et al., 2016 (the entire disclosure of which is hereby incorporated by reference). Cells were subsequently maintained in 10% DMEM containing hygromycin (80 μg/ml), penicillin (100 U/ml), streptomycin (0.1 mg/ml) and blasticidine S hydrochloride (15 μg/ml).
OTR or V1aR-expressing HEK-293 cells were seeded onto poly-L-lysine (100 μg/ml)-coated 384-well plates at a density of 8.75×10^3 cells per well. Cells were incubated in tetracycline (2 μg/mL) for 48 h to induce receptor expression. Intracellular IP1 levels induced by activation of the Gq protein coupled to the OTR and V1aR was indexed using the HTRF IP-One kit (CisBio International, Bedford, Mass., USA), according to manufacturer's protocol. For agonist assessment, cells were incubated with logarithmically-spaced concentrations of compounds (1 nM-100 μM) for 1 h prior to the addition of Ab-Cryptate and IP1-d2 for 1 h. The contents of each well were transferred to a white-walled proxy plate (Perkin Elmer) and fluorescence read using a Pherastar Microplate reader (BMG Labtech, Cary, N.C., USA). For antagonist assessment, cells were incubated an ˜EC70 concentration of OT (30 nM) or AVP (25 nM) mixed with compounds (1 nM-100 μM) or vehicle control for 1 h. IP1 levels in the presence of compounds and OT or AVP were expressed as a percentage of levels seen with OT or AVP in the presence of vehicle control. Concentration response curves for OT and AVP were determined after 5 min incubation in drug or vehicle, and the data fitted using GraphPad PRISM to a 4-parameter logistic equation of the form y=Min+(Max−Min)/(1+10^((logEC50−X)*n)) where X is drug concentration and n is the H-ill slope. Data represent the mean±s.d. of at least 3 independent experiments, each in duplicate.

[3] = target: T2, oxytocin receptor (OXTR), hOTR; assay: Competition radioligand binding, [3H]-oxytocin, OTR-expressing HEK293 membranes; details: [3H]-oxytocin 10 nM, 90 min 4 °C
Experimental: as §1
(§2) To induce receptor expression, cells were incubated with tetracycline (2 μg/mL) for 48 h. PBS with 5 mM EDTA (pH 7.4) was used to detach OTR and V1aR-expressing HEK293 cells from culture flasks. Harvested cells were centrifuged at 1200 g for 5 min and were resuspended in homogenization buffer (50 mM HEPES, 5 mM EDTA, 5 mM MgCl2; pH 7.4) prior to homogenization using an Ultra-Turrax homogeniser (IKA, Wilmington, N.C., USA). Homogenates were centrifuged three times for 30 min at 48.000 g, 4° C. for 30 min and membrane pellets resuspended in 50 mM Tris HCl, 5 mM MgCl2 (pH 7.4). A bicinchoninic acid assay was used according to the manufacturer's protocol (Bio-Rad, Hercules. Calif., USA) to measure final protein concentration. Membranes were stored at −80° C. until use in competition radioligand binding studies.
(§3) Reactions were incubated for 90 min at 4° C. to reach equilibrium, and terminated by rapid filtration over glass fibre filters (Whatman GF/A […]; Millipore, Darmstadt, Germany), and washing with ice-cold reaction buffer. Filters were dried, then incubated with Microscint 0 (Perkin Elmer) for 30 min before radioactivity was detected with a Microbeta2 2450 microplate-reader (Perkin Elmer). […] Specific binding in the presence of compounds was expressed as a percentage of specific binding in the presence of vehicle control. A sum-of-squares F-test was used to compare the goodness of fit of one-site, two-site and sigmoidal with variable hill slope binding models, and to calculate Ki's using Graphpad Prism (Graphpad Software, La Jolla, Calif., USA).

[4] = target: T1, vasopressin 1a receptor (V1aR); assay: Competition radioligand binding, [3H]-vasopressin, V1aR-expressing HEK293 membranes; details: [3H]-vasopressin 2 nM, 90 min 4 °C
Experimental: as §1, §2, §3

T1 sequence (P37288 whole entry): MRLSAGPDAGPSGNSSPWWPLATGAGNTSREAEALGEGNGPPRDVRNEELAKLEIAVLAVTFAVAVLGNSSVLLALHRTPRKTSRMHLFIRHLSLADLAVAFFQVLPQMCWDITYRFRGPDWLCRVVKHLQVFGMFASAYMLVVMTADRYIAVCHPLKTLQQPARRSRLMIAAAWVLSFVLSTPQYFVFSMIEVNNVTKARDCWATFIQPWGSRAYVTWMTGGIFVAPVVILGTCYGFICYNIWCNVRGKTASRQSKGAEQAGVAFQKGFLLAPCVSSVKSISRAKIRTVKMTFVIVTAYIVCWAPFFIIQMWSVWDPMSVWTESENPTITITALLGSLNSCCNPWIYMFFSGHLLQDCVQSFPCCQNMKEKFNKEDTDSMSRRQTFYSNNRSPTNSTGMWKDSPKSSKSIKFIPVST

Structure (SMILES)	EC50 [1]	IC50 [1]	EC50 ([2]; agonist assessment)	IC50 ([2]; IP1)	OV function [2]	melting point	Ki [3]	Ki [4]	Emax [2]	EC50 (OXTR agonist potency, mean ± s.d.) ([2]; agonist assessment, IP1)
Cn1ncc2c1Nc1ccccc1N(C(=O)c1ccc(OCc3ccccc3)cc1)C2 [BzE, (4-(benzyloxy)phenyl)(1-methyl-4,10-dihydrobenzo[b]pyrazolo[3,4-e][1,4]diazepin-5 (1H)-yl)methanone]	> 10 µM	1.59 ± 0.486 µM	> 10 µM	0.179 µM	0.11	207 to 209 °C	0.176 ± 0.041 µM	0.035 ± 0.005 µM	–	–
Cn1ncc2c1Nc1ccccc1N(C(=O)C1CC1)C2 [CA3 (KA), cyclopropyl(1-methyl-4,10-dihydrobenzo[b]pyrazolo[3,4-e][1,4]diazepin-5 (1H)-yl)methanone]	> 10 µM	> 10 µM	> 10 µM	> 10 µM	–	207 to 209 °C	> 10 µM	3.37 ± 0.74 µM	–	–
Cn1ncc2c1Nc1ccccc1N(C(=O)C1CCCC1)C2 [CAS (KA), cyclopentyl(1-methyl-4,10-dihydrobenzo[b]pyrazolo[3,4-e][1,4]diazepin-5 (1H)-yl)methanone]	> 10 µM	> 10 µM	3.39 ± 0.448 µM	–	<0.33	> 300 °C	> 10 µM	0.553 ± 0.067 µM	10%	–
CCc1ccc(C(=O)N2Cc3cnn(C)c3Nc3ccccc32)cc1 [TRGA99, (4-ethylphenyl)(1-methyl-4,10-dihydrobenzo[b]pyrazolo[3,4-e][1,4]diazepin-5 (1H)-yl)methanone]	> 10 µM	1.65 ± 0.075 µM	0.041 ± 0.015 µM	–	0.02	–	0.022 ± 0.008 µM	0.0018 ± 0.0006 µM	8%	–
Cn1ncc2c1Nc1ccccc1N(C(=O)C1C(C)(C)C1(C)C)C2 [TRGA111, (1-methyl-4,10-dihydrobenzo[b]pyrazolo[3,4-e][1,4]diazepin-5 (1H)-yl)(2,2,3,3-tetramethylcyclopropyl)methanone]	> 10 µM	> 10 µM	> 10 µM	> 10 µM	–	–	> 10 µM	> 10 µM	–	–
Cn1ncc2c1Nc1ccccc1N(C(=O)c1cc(O)cc(O)c1)C2 [WJ0623, (3,5-Dihydroxyphenyl)(1-methyl-4,10-dihydrobenzo[b]pyrazolo[3,4-e][1,4]diazepin-5 (1H)-yl)methanone]	> 10 µM	0.205 ± 0.0576 µM	> 10 µM	1.76 µM	8.59	> 300 °C	0.0926 ± 0.01 µM	0.0046 ± 0.0013 µM	–	–
COc1cc(CN2Cc3cnn(C)c3Nc3ccccc32)cc(OC)c1 [WJ0625, 5-(3,5-Dimethoxybenzyl)-1-methyl-1,4,5,10-tetrahydrobenzo[b]pyrazolo[3,4-e][1,4]diazepine]	> 10 µM	> 10 µM	> 10 µM	> 10 µM	–	210 to 212 °C	> 10 µM	> 10 µM	–	–
Cn1ncc2c1Nc1ccccc1N(Cc1cc(O)cc(O)c1)C2 [WJ0627, 5-((1-Methyl-4,10-dihydrobenzo[b]pyrazolo[3,4-e][1,4]diazepin-5(1H)-yl)methyl)benzene-1,3-diol]	> 10 µM	> 10 µM	> 10 µM	> 10 µM	–	236 to 238 °C	> 10 µM	> 10 µM	–	–
COc1cc(OC)cc(C(=O)N2Cc3cnn(C)c3Nc3ccccc32)c1 [WJ0629, (3,5-Dimethoxyphenyl)(1-methyl-4,10-dihydrobenzo[b]pyrazolo[3,4-e][1,4]diazepin-5 (1H)-yl)methanone]	> 10 µM	0.0948 ± 0.0077 µM	> 10 µM	1.77 µM	18.63	279 to 281 °C (dec.)	0.316 ± 0.0792 µM	0.0129 ± 0.0015 µM	–	–
Cc1cc(C(=O)N2Cc3cnn(C)c3Nc3ccccc32)ccc1CN [WJ0761]	> 10 µM	> 10 µM	9.19 ± 1.62 µM	–	<0.92	–	> 10 µM	0.0447 ± 0.005 µM	8%	–
Cn1ncc2c1Nc1ccccc1N(C(=O)c1ccc(Cl)c(Cl)c1)C2 [WJ0824, (3,4-Dichlorophenyl)(1-methyl-4,10-dihydrobenzo[b]pyrazolo[3,4-e][1,4]diazepin-5 (1H)-yl)methanone]	> 10 µM	> 10 µM	0.438 ± 0.127 µM	–	–	–	1.62 ± 0.243 µM	0.455 ± 0.112 µM	12.9%	0.3218 µM
